This is an account of results in patent publication US20260317324A1, “BIFUNCTIONAL COMPOUNDS FOR DEGRADING BRAF VIA UBIQUITIN PROTEOSOME PATHWAY” (Nurix Therapeutics, Inc., priority 2023, published 2026).

Common to all, as to type: cell-based
One test has as its target T1, BRAF G469A (Homo sapiens, UniProt P15056, G469A).
T1 construct: Horizon Discovery (HCT-116 BRAF−/− cells); host or cells: HCT-116 BRAF−/− cells, clone 34, lentiviral transduction
Put plainly: BRAF HiBiT degradation assay, C-terminal HiBiT-tagged BRAF G469A overexpressed in HCT-116 BRAF−/− cells (clone 34), Nano-Glo HiBiT Lytic assay. The method, boiled down:
(§1)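 Degradation was read by Nano-Glo HiBiT lytic luminescence, normalised to DMSO-treated tagged cells with wildtype HCT-116 as background. Test cells were lentiviral clones of HCT-116 BRAF−/− carrying HiBiT-tagged mutants in RPMI/10% FBS, given compound at 0.01 nM–1 μM in duplicate. Outputs are the curve-fitted concentration giving 50% degradation and the maximal observed degradation.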
Background: With HiBiT, luminescence reflects the tagged protein that the partner subunit can reach.

Another test addresses T2, BRAF G466V (Homo sapiens, UniProt P15056, G466V).
T2 construct: Horizon Discovery (HCT-116 BRAF−/− cells); host or cells: HCT-116 BRAF−/− cells, clone 8, lentiviral transduction
The experiment in a line: BRAF HiBiT degradation assay, C-terminal HiBiT-tagged BRAF G466V overexpressed in HCT-116 BRAF−/− cells (clone 8), Nano-Glo HiBiT Lytic assay. The method, boiled down:
as §1

The next test concerns the target T3, BRAF D594G (Homo sapiens, UniProt P15056, D594G).
T3 construct: Horizon Discovery (HCT-116 BRAF−/− cells); host or cells: HCT-116 BRAF−/− cells, clone 63, lentiviral transduction
The experiment in a line: BRAF HiBiT degradation assay, C-terminal HiBiT-tagged BRAF D594G overexpressed in HCT-116 BRAF−/− cells (clone 63), Nano-Glo HiBiT Lytic assay. In short, it runs like this:
as §1

A further test concerns the target T4, BRAF V600E (Homo sapiens, UniProt P15056, V600E).
T4 construct: endogenous C-terminal HiBiT fusion tag on BRAF V600E allele; endogenous in cells; host or cells: A375 clone 1F10 (CRISPR-Cas9 knock-in of the HiBiT tag; parental A375 from ATCC)
Put plainly: BRAF HiBiT degradation assay, C-terminal HiBiT-tagged BRAF V600E A375 cells (clone 1F10), Nano-Glo HiBiT Lytic assay. The settings on record: for Dmax: A-375. The method, boiled down: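 Luminescence from the Nano-Glo HiBiT lytic read-out gave % BRAF V600E remaining versus DMSO-treated tagged cells, with untagged A375 as background. Clone 1F10 cells (10,000/well, 24 h pre-culture) received compound at 1 μM–0.01 nM in half-log steps, 0.2% DMSO; curve fits gave DC50 at Y=50, plus observed Dmax.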

Setting [1] is: BRAF G469A (Class 2), HCT-116 BRAF−/− cells, DC50 at 50% degradation.
Setting [2] is: BRAF G469A (Class 2), HCT-116 BRAF−/− cells, observed Dmax relative to DMSO control.
[3] abbreviates: BRAF G466V (Class 3), HCT-116 BRAF−/− cells, DC50 at 50% degradation.
Where [4] appears, read: BRAF G466V (Class 3), HCT-116 BRAF−/− cells, observed Dmax relative to DMSO control.
[5] abbreviates: BRAF D594G (Class 3), HCT-116 BRAF−/− cells, DC50 at 50% degradation.
The mark [6] stands for this setting: BRAF D594G (Class 3), HCT-116 BRAF−/− cells, observed Dmax relative to DMSO control.
The mark [7] stands for this setting: A375 (BRAF V600E, Class 1), DC50 at 50% degradation.
[8] abbreviates: A375 (BRAF V600E, Class 1), observed Dmax, % protein degraded relative to DMSO control.
The mark [9] stands for this setting: Class 2, BRAF G469A, DC50 at 50%: fitted conc. at Y=50.
[10] abbreviates: HCT-116, Class 2, BRAF G469A, percentage protein degraded at maximal compound effect relative to DMSO.
[11] abbreviates: BRAF G466V, DC50 at 50%: fitted conc. at Y=50.
The mark [12] stands for this setting: HCT-116, BRAF G466V, percentage protein degraded at maximal compound effect relative to DMSO.
Where [13] appears, read: BRAF D594G, DC50 at 50%: fitted conc. at Y=50.
Setting [14] is: HCT-116, BRAF D594G, percentage protein degraded at maximal compound effect relative to DMSO.
[15] abbreviates: A375 (BRAF V600E), DC50 at 50%: fitted conc. at Y=50.
The mark [16] stands for this setting: A375 (BRAF V600E), percentage protein degraded at maximal compound effect relative to DMSO.

T1 sequence (P15056 whole entry G469A): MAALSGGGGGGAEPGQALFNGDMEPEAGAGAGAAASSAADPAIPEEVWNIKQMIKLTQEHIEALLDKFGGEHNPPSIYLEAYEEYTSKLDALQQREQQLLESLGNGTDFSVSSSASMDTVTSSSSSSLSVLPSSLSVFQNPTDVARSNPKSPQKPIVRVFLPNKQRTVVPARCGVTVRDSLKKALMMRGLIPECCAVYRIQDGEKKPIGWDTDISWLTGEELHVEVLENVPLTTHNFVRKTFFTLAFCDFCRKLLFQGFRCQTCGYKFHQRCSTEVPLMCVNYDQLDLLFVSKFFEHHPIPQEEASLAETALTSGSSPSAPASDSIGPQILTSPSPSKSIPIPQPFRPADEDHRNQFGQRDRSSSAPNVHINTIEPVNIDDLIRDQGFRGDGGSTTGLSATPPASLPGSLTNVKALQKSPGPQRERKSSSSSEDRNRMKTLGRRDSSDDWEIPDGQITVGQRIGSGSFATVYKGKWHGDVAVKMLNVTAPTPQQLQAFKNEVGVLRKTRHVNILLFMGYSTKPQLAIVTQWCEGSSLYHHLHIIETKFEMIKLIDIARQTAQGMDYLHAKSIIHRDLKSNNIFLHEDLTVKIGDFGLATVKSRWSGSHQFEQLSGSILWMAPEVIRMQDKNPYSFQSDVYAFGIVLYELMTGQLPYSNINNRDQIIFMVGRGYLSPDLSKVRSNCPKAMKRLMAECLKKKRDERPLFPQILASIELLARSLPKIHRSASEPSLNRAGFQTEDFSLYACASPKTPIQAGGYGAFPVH
T2 sequence (P15056 whole entry G466V): as the sequence (P15056 whole entry G469A) above, with G466V, A469G counted along it
T4 sequence (P15056 whole entry V600E, the tested form may be a part): as the sequence (P15056 whole entry G469A) above, with A469G, V600E counted along it
T3 sequence (P15056 whole entry D594G): as the sequence (P15056 whole entry G469A) above, with A469G, D594G counted along it

As to `CCN(C)S(=O)(=O)Nc1cc(Cl)cc(-c2cn(-c3ccc(N4CCN(CC5CCN(c6ccc([C@H]7CCC(=O)NC7=O)cc6)CC5)CC4)cc3)nc2-c2ccncc2)c1F` [Compound 306, (3R)-3-(4-{4-[(4-{4-[4-(5-chloro-3-{[ethyl(methyl)sulfamoyl]amino}-2-fluorophenyl)-3-(pyridin-4-yl)-1H-pyrazol-1-yl]phenyl}piperazin-1-yl)methyl]piperidin-1-yl}phenyl)piperidine-2,6-dione], the half-maximal degradation concentration (DC50) (commonly the concentration giving 50% degradation) at BRAF G469A (setting [1]) is 10 to 50 nM; on BRAF G466V (setting [3]), below 10 nM; on BRAF D594G (setting [5]) it was below 10 nM; at BRAF V600E (setting [7]) it was below 10 nM. In addition, the Dmax – broadly, the largest share of the target that was removed – is 30 to 70% at BRAF G469A (setting [2]), above 70% at BRAF G466V (setting [4]), 30 to 70% on BRAF D594G (setting [6]) and above 70% on BRAF V600E (setting [8]).

`CCCS(=O)(=O)Nc1cccc(-c2nc(CCC3CCN(C(=O)C4CCN(C(=O)C5CCN(c6ccc(C7CCC(=O)NC7=O)cn6)CC5)CC4)CC3)sc2-c2ccnc(N)n2)c1F` (racemic) [Compound 205, Rac-N-{3-[5-(2-aminopyrimidin-4-yl)-2-(2-{1-[1-(1-{5-[(3R)-2,6-dioxopiperidin-3-yl]pyridin-2-yl}piperidine-4-carbonyl)piperidine-4-carbonyl]piperidin-4-yl}ethyl)-1,3-thiazol-4-yl]-2-fluorophenyl}propane-1-sulfonamide]: the half-maximal degradation concentration (DC50) was above 500 nM on BRAF G469A (setting [9]), above 500 nM at BRAF G466V (setting [11]), above 500 nM at BRAF D594G (setting [13]) and below 10 nM at BRAF V600E (setting [15]). Besides, the Dmax at BRAF G469A (setting [10]) was 30 to 70%; at BRAF G466V (setting [12]), 30 to 70%; on BRAF D594G (setting [14]) it was 30 to 70%; on BRAF V600E (setting [16]) it was above 70%.

With `O=C1CCC(c2ccc(N3CCC(CN4CCN(c5ccc(-n6cc(-c7cc(Cl)cc(NS(=O)(=O)N8CCCC8)c7F)c(-c7ccncc7)n6)nc5)CC4)CC3)nc2)C(=O)N1` (racemic) [Compound 288, Rac-N-{5-chloro-3-[1-(5-{4-[(1-{5-[(3R)-2,6-dioxopiperidin-3-yl]pyridin-2-yl}piperidin-4-yl)methyl]piperazin-1-yl}pyridin-2-yl)-3-(pyridin-4-yl)-1H-pyrazol-4-yl]-2-fluorophenyl}pyrrolidine-1-sulfonamide], the half-maximal degradation concentration (DC50) at BRAF G469A (setting [1]), at BRAF G466V (setting [3]), at BRAF D594G (setting [5]) and on BRAF V600E (setting [7]) was below 10 nM each time. For the same compound, the Dmax at BRAF G469A (setting [2]), on BRAF G466V (setting [4]), at BRAF D594G (setting [6]) and on BRAF V600E (setting [8]) was above 70% each time.

For `O=C1CCN(c2ccc(N3CCC(CN4CCN(c5ccc(-n6cc(-c7cc(Cl)cc(NS(=O)(=O)C8CCCC8)c7F)c(-c7ccncc7)n6)cc5)CC4)CC3)nc2)C(=O)N1` [Compound 388, N-[5-chloro-3-(1-{4-[4-({1-[5-(2,4-dioxo-1,3-diazinan-1-yl)pyridin-2-yl]piperidin-4-yl}methyl)piperazin-1-yl]phenyl}-3-(pyridin-4-yl)-1H-pyrazol-4-yl)-2-fluorophenyl]cyclopentanesulfonamide], the DC50 on BRAF G469A (setting [1]) was 10 to 50 nM; at BRAF G466V (setting [3]), below 10 nM; at BRAF D594G (setting [5]), below 10 nM; at BRAF V600E (setting [7]), below 10 nM. Further, the Dmax at BRAF G469A (setting [2]) was 30 to 70%; on BRAF G466V (setting [4]) it was above 70%; at BRAF D594G (setting [6]), 30 to 70%; at BRAF V600E (setting [8]), above 70%.

With `C[C@@H]1CN(c2ccc(-n3cc(-c4cc(Cl)cc(NS(=O)(=O)N5CCCC5)c4F)c(-c4ccncc4)n3)nc2)CCN1CC1CCN(c2ccc(C3CCC(=O)NC3=O)cn2)CC1` (mixture of isomers) [Compound 323, N-[5-chloro-3-(1-{5-[(3R)-4-[(1-{5-[(3RS)-2,6-dioxopiperidin-3-yl]pyridin-2-yl}piperidin-4-yl)methyl]-3-methylpiperazin-1-yl]pyridin-2-yl}-3-(pyridin-4-yl)-1H-pyrazol-4-yl)-2-fluorophenyl]pyrrolidine-1-sulfonamide], the 50% degradation concentration (DC50) on BRAF G469A (setting [1]), at BRAF G466V (setting [3]), on BRAF D594G (setting [5]) and at BRAF V600E (setting [7]) was below 10 nM throughout. Also, the Dmax at BRAF G469A (setting [2]), on BRAF G466V (setting [4]), at BRAF D594G (setting [6]) and at BRAF V600E (setting [8]) was above 70% each time.

As to `CCCS(=O)(=O)Nc1cccc(-c2nc(C(C)(C)C)sc2-c2ccnc(Nc3cnn(CC4CCN(C(=O)[C@@H]5CCN(c6ccc(C7CCC(=O)NC7=O)cn6)C5)CC4)c3)n2)c1F` (mixture of isomers) [Compound 114, N-{3-[2-tert-butyl-5-(2-{[1-({1-[(3R)-1-{5-[(3RS)-2,6-dioxopiperidin-3-yl]pyridin-2-yl}pyrrolidine-3-carbonyl]piperidin-4-yl}methyl)-1H-pyrazol-4-yl]amino}pyrimidin-4-yl)-1,3-thiazol-4-yl]-2-fluorophenyl}propane-1-sulfonamide], the half-maximal degradation concentration (DC50) on BRAF G469A (setting [9]) was above 500 nM; on BRAF G466V (setting [11]) it was above 500 nM; on BRAF D594G (setting [13]), above 500 nM; on BRAF V600E (setting [15]), 10 to 50 nM. The Dmax was below 30% at BRAF G469A (setting [10]), below 30% at BRAF G466V (setting [12]), 30 to 70% at BRAF D594G (setting [14]) and above 70% at BRAF V600E (setting [16]).

On to `CCCS(=O)(=O)Nc1cccc(-c2nc(C3CCN(C(=O)C4(C)CCN(C(=O)C5CCN(c6ccc(C7CCC(=O)NC7=O)cc6)CC5)CC4)CC3)sc2-c2ccnc(NC(C)C)n2)c1F` (racemic) [Compound 179, Rac-N-[3-(2-{1-[1-(1-{4-[(3R)-2,6-dioxopiperidin-3-yl]phenyl}piperidine-4-carbonyl)-4-methylpiperidine-4-carbonyl]piperidin-4-yl}-5-{2-[(propan-2-yl)amino]pyrimidin-4-yl}-1,3-thiazol-4-yl)-2-fluorophenyl]propane-1-sulfonamide], for which the 50% degradation concentration (DC50) was above 500 nM at BRAF G469A (setting [9]), above 500 nM on BRAF G466V (setting [11]), below 10 nM at BRAF D594G (setting [13]) and below 10 nM on BRAF V600E (setting [15]). The greatest degradation seen (Dmax) at BRAF G469A (setting [10]) is below 30%; at BRAF G466V (setting [12]) it was 30 to 70%; on BRAF D594G (setting [14]), 30 to 70%; at BRAF V600E (setting [16]), above 70%.

On to `CCCS(=O)(=O)Nc1cccc(-c2nc(C)sc2-c2ccnc(Nc3ccc(N4CCN(CC5CCN(c6ccc([C@@H]7CCC(=O)NC7=O)cc6)CC5)CC4)cn3)n2)c1F` [Compound 61, N-[3-(5-{2-[(5-{4-[(1-{4-[(3S)-2,6-dioxopiperidin-3-yl]phenyl}piperidin-4-yl)methyl]piperazin-1-yl}pyridin-2-yl)amino]pyrimidin-4-yl}-2-methyl-1,3-thiazol-4-yl)-2-fluorophenyl]propane-1-sulfonamide], for which the DC50 was below 10 nM on BRAF G469A (setting [9]), above 500 nM on BRAF G466V (setting [11]), above 500 nM at BRAF D594G (setting [13]) and below 10 nM at BRAF V600E (setting [15]). Besides, the Dmax at BRAF G469A (setting [10]) was 30 to 70%; at BRAF G466V (setting [12]), 30 to 70%; on BRAF D594G (setting [14]) it was 30 to 70%; on BRAF V600E (setting [16]) it was above 70%.

Consider `O=C1CCC(c2ccc(N3CCC(CN4CCN(c5ccc(-n6cc(-c7cc(F)cc(NS(=O)(=O)N8CCCC8)c7F)c(-c7ccncc7)n6)cc5)CC4)CC3)nc2)C(=O)N1` (racemic) [Compound 267, Rac-(R)—N-(3-(1-(4-(4-((1-(5-(2,6-dioxopiperidin-3-yl)pyridin-2-yl)piperidin-4-yl)methyl)piperazin-1-yl)phenyl)-3-(pyridin-4-yl)-1H-pyrazol-4-yl)-2,5-difluorophenyl)pyrrolidine-1-sulfonamide], for which the DC50 on BRAF G469A (setting [1]) is 10 to 50 nM; on BRAF G466V (setting [3]) it was below 10 nM; at BRAF D594G (setting [5]) it was below 10 nM; on BRAF V600E (setting [7]) it was below 10 nM. Also, the maximal degradation (Dmax) at BRAF G469A (setting [2]), at BRAF G466V (setting [4]), at BRAF D594G (setting [6]) and at BRAF V600E (setting [8]) was above 70% each time.
